This data set can be described thus: Plasma pharmacokinetics after single oral dose in male rats. Type of data set: in vivo. As to conditions: single 100 mg oral dose; for AUC(0-t) / Cmax / Tmax: rat, plasma, N=3; for AUC(0-t) / Cmax: geometric mean; for Tmax: median. The protocol:
The d6-THCu was formulated at a concentration of 10% w/w in the amounts and ratios provided below:
Compositions were prepared according to the following process. Set up the 5 L jacketed reaction vessel and Julabo circulation heater. Begin heating the Julabo to 90° C. Dispense Phosal 75 SA, Captex 300, and Labrasol ALF (Items 2, 3, and 4) into appropriately sized containers. Add sthe Phosal 75 SA, Captex 300, and Labrasol ALF to the 5 L reaction vessel. Mix contents until visually homogenous and product reaches a temperature of 85° C.±5° C. Add Tetrahydrocurcumin to vessel containing Phosal 75 SA, Captex 300, and Labrasol ALF while stirring. Mix until completely dissolved and visually homogenous. Reduce the Julabo temperature and allow the solution to cool to 30° C.±5° C. while continuing to stir. Package product by adding 50 mL to appropriate 60 mL bottles. Continue until product is exhausted.
The d6-THCu version of the compound provides a desirable release profile compared to non-deuterated THCu. Compositions were prepared using THCu as well as d6-THCu and their pk profiles were compared.
The plasma concentrations of THCu and THCu-d6 was compared by administering single doses of 100 mg to male rats. […] Individual animal pharmacokinetic parameters comparing THCu and d6-THCu is shown in FIG. 4, and statistics for the individual animal pharmacokinetic parameters is shown in FIG. 5.
Graphs of individual animal plasma concentrations versus time are shown in FIGS. 6-7 (linear axes) and FIGS. 8-9 (semi-logarithmic axes).

Structures are written as SMILES. “Also recorded” adds a separate entry of the source.

The AUC(0-t) is the area under the concentration-time curve up to a stated or last time point. A word on the Cmax: it is the peak of the concentration-time curve. As a reminder, the Tmax is the time at which the peak concentration occurs. As for `[2H]C([2H])([2H])Oc1cc(CCC(=O)CC(=O)CCc2ccc(O)c(OC([2H])([2H])[2H])c2)ccc1O` [THCu-d6, d6-Tetrahydrocurumin], the AUC(0-t) was 43000 ng·h/mL, the Cmax came out at 2820 ng/mL and the Tmax was found to be 24 h. Moreover, for the setting “compared with non-deuterated THCu”, the “plasma concentration versus time / release profile” value is recorded as “more stable release profile than the non-deuterated version; also recorded: no burst release of active agent after administration”.
For `COc1cc(CCC(=O)CC(=O)CCc2ccc(O)c(OC)c2)ccc1O` [THCu, tetrahydrocurcumin], the AUC(0-t) came to 38300 ng·h/mL, the highest level (Cmax) was 4070 ng/mL and the Tmax came to 1 h.

The record behind these values is patent US12697311B2, “Tetrahydrocurcumin compositions, methods of making, and methods of using the same” (Renibus Therapeutics, Inc., priority 2019, dated 2026).
